Measurements: ChEMBL document CHEMBL1201862, “PubChem BioAssay data set” (2004)
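Interpolation was linear, between the two tested concentrations surrounding the appropriate level; five concentrations were tested over 48 hours in 96-well plates. At the GI50, growth is halved.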 Calls of active or inactive are those of the source. Rule as the data show it: active = GI50 up to about 1.1 µM and inactive = higher.

What was measured:
Test in all cases: NCI anticancer screen, dose series, 48 h
786-0 = test system: 786-0
A498 = test system: A498
EKVX = test system: EKVX
HOP-62 = test system: HOP-62
LOX IMVI = test system: LOX IMVI
M14 = test system: M14
MCF7 = test system: MCF7
MDA-N = test system: MDA-N
MOLT-4 = test system: MOLT-4
Malme-3M = test system: Malme-3M
OVCAR-3 = test system: OVCAR-3
OVCAR-5 = test system: OVCAR-5
OVCAR-8 = test system: OVCAR-8
SK-MEL-28 = test system: SK-MEL-28
SK-MEL-5 = test system: SK-MEL-5
SN12C = test system: SN12C
SNB-75 = test system: SNB-75
SR = test system: SR
SW-620 = test system: SW-620
UACC-257 = test system: UACC-257

| Structure (SMILES) | GI50 (786-0) | GI50 (A498) | GI50 (EKVX) | GI50 (HOP-62) | GI50 (LOX IMVI) | GI50 (M14) | GI50 (MCF7) | GI50 (MDA-N) | GI50 (MOLT-4) | GI50 (Malme-3M) | GI50 (OVCAR-3) | GI50 (OVCAR-5) | GI50 (OVCAR-8) | GI50 (SK-MEL-28) | GI50 (SK-MEL-5) | GI50 (SN12C) | GI50 (SNB-75) | GI50 (SR) | GI50 (SW-620) | GI50 (UACC-257) |
| --- | --- | --- | --- | --- | --- | --- | --- | --- | --- | --- | --- | --- | --- | --- | --- | --- | --- | --- | --- | --- |
| Cn1c(=O)n2c(-c3ccccc3)c(-c3ccccc3)n2c1=O | > 100 µM (inactive) | > 100 µM (inactive) | > 100 µM (inactive) | > 100 µM (inactive) | > 100 µM (inactive) | > 100 µM (inactive) | > 100 µM (inactive) | > 100 µM (inactive) | > 100 µM (inactive) | > 100 µM (inactive) | > 100 µM (inactive) | > 100 µM (inactive) | > 100 µM (inactive) | > 100 µM (inactive) | > 100 µM (inactive) | > 100 µM (inactive) | 99.1 µM (inactive) | > 100 µM (inactive) | > 100 µM (inactive) | > 100 µM (inactive) |
| Nc1nc(SCC(=O)O)nc(O)c1N | 41.6 µM (inactive) | > 100 µM (inactive) | > 100 µM (inactive) | > 100 µM (inactive) | 20.9 µM (inactive) | > 100 µM (inactive) | > 100 µM (inactive) | 33.2 µM (inactive) | 37.6 µM (inactive) | > 100 µM (inactive) | > 100 µM (inactive) | > 100 µM (inactive) | 78.5 µM (inactive) | > 100 µM (inactive) | > 100 µM (inactive) | 13.3 µM (inactive) | 50.2 µM (inactive) | 22.6 µM (inactive) | 31 µM (inactive) | 70.5 µM (inactive) |
| CC(Cc1ccc(Cl)cc1Cl)NO (stereo not given) | > 100 µM (inactive) | > 100 µM (inactive) | 58.2 µM (inactive) | > 100 µM (inactive) | > 100 µM (inactive) | > 100 µM (inactive) | > 100 µM (inactive) | > 100 µM (inactive) | 83.6 µM (inactive) | > 100 µM (inactive) | > 100 µM (inactive) | > 100 µM (inactive) | > 100 µM (inactive) | > 100 µM (inactive) | 95.7 µM (inactive) | 92.7 µM (inactive) | 94 µM (inactive) | > 100 µM (inactive) | > 100 µM (inactive) | > 100 µM (inactive) |
| CCOC(=O)c1ccc(/N=C2\SC(=S)N(c3ccc(F)cc3)\C2=N/c2ccc(C(=O)OCC)cc2)cc1 | 17.1 µM (inactive) | > 100 µM (inactive) | 22.1 µM (inactive) | > 58.7 µM (inactive) | 5.73 µM (inactive) | 6.75 µM (inactive) | 18.8 µM (inactive) | 12.9 µM (inactive) | 3.68 µM (inactive) | 15.5 µM (inactive) | 20 µM (inactive) | 23 µM (inactive) | 7.53 µM (inactive) | 13.2 µM (inactive) | 10.5 µM (inactive) | 15.7 µM (inactive) | 20.2 µM (inactive) | 2.2 µM (inactive) | 12.5 µM (inactive) | 15.2 µM (inactive) |
| CC(=O)OC(C)c1cc2c(s1)C(=O)c1sccc1C2=O (stereo not given) | 4.45 µM (inactive) | 2.33 µM (inactive) | 2.03 µM (inactive) | 1.03 µM (active) | 0.446 µM (active) | 0.14 µM (active) | 0.995 µM (active) | 0.0735 µM (active) | 2.7 µM (inactive) | 0.21 µM (active) | 0.604 µM (active) | 1.73 µM (inactive) | 1.81 µM (inactive) | 0.916 µM (active) | 0.139 µM (active) | 0.542 µM (active) | 1.29 µM (inactive) | 0.51 µM (active) | 0.714 µM (active) | 0.215 µM (active) |
| COc1ccc2c(O)c1-c1c(OC)ccc(c1O)SSc1ccc(OC)c(c1O)-c1c(OC)ccc(c1O)SS2 | 40.6 µM (inactive) | > 100 µM (inactive) | 7.87 µM (inactive) | > 100 µM (inactive) | 26.7 µM (inactive) | > 100 µM (inactive) | > 100 µM (inactive) | > 100 µM (inactive) | > 100 µM (inactive) | 51.2 µM (inactive) | 20.6 µM (inactive) | 66.4 µM (inactive) | 32.9 µM (inactive) | 34.4 µM (inactive) | 30 µM (inactive) | > 100 µM (inactive) | 36.7 µM (inactive) | 4.27 µM (inactive) | 16 µM (inactive) | > 100 µM (inactive) |
| CC(=O)N(C(C)=O)n1c(Cc2ccc(C)cc2)nn(C(C)=O)c1=O | > 100 µM (inactive) | > 100 µM (inactive) | > 100 µM (inactive) | > 100 µM (inactive) | > 100 µM (inactive) | > 100 µM (inactive) | > 100 µM (inactive) | > 100 µM (inactive) | > 100 µM (inactive) | > 100 µM (inactive) | > 100 µM (inactive) | > 100 µM (inactive) | > 100 µM (inactive) | > 100 µM (inactive) | > 100 µM (inactive) | > 100 µM (inactive) | > 100 µM (inactive) | > 100 µM (inactive) | > 100 µM (inactive) | > 100 µM (inactive) |
